# Source: patent publication US20100267561A1, “HERBICIDAL PYRIDAZINONE DERIVATIVES” (priority 2007, published 2010)
# Like-named read-outs stand apart in the source and are kept apart here.
# Experiments:
# Type in all cases: in vivo
# [1] = test system: barnyardgrass (Echinochloa crus-galli); test: Test B flooded paddy test plant response
# Procedure, shortened: (§1)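 Compounds were added directly to paddy water over 2-leaf-stage plants in pots flooded 3 cm above soil, water depth maintained. Visual injury scored against controls after 13 to 15 days in greenhouse, 0 (none) to 100 (complete control); dash indicates no result.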
# [2] = test system: umbrella sedge (Cyperus difformis); test: Test B flooded paddy test plant response
# Procedure, shortened: as §1
# [3] = test system: winter barley (Hordeum vulgare); test: Test B postemergence plant response; conditions: for Barley plant response rating: 8 g ai/ha, postemergence, 0-100 scale; for Plant response rating, Barley: Postemergence, scale 0 to 100, 0 no effect, 100 complete control
# Procedure: (§2) At the same time, plants selected from these crop and weed species and also winter barley (Hordeum vulgare), canarygrass (Phalaris minor), chickweed (Stellaria media) and windgrass (Apera spica-venti) were treated with postemergence applications of some of the test chemicals formulated in the same manner. Plants ranged in height from 2 to 18 cm (1- to 4-leaf stage) for postemergence treatments.
# (§3) Plant species in the flooded paddy test consisted of rice (Oryza sativa), umbrella sedge (Cyperus difformis), ducksalad (Heteranthera limosa) and barnyardgrass (Echinochloa crus-galli) grown to the 2-leaf stage for testing. At time of treatment, test pots were flooded to 3 cm above the soil surface, treated by application of test compounds directly to the paddy water, and then maintained at that water depth for the duration of the test. Treated plants and controls were maintained in a greenhouse for 13 to 15 days, after which time all species were compared to controls and visually evaluated. Plant response ratings, summarized in Table B, are based on a scale of 0 to 100 where 0 is no effect and 100 is complete control. A dash (-) response means no test result.
# [4] = test system: chickweed (Stellaria media); test: Test B postemergence plant response; conditions: for Chickweed plant response rating: 8 g ai/ha, postemergence, 0-100 scale; for Plant response rating, Chickweed: Postemergence
# Procedure: as §2, §3
# [5] = test system: canarygrass (Phalaris minor); test: Test B postemergence plant response; conditions: for Canarygrass plant response rating: 8 g ai/ha, postemergence, 0-100 scale; for Plant response rating, Canarygrass: Postemergence
# Procedure: as §2, §3
# [6] = test system: windgrass (Apera spica-venti); test: Test B postemergence plant response; conditions: for Windgrass plant response rating: postemergence, 0-100 scale; for Plant response rating, Windgrass: Postemergence
# Procedure: as §2, §3
# [7] = test system: barnyardgrass (Echinochloa crus-galli); test: Test A pre-/postemergence plant response; conditions: for pest or weed control at 31 g/ha / pest or weed control at 125 g/ha: Echinochloa crus-galli, 240 h, read-out: Plant response rating, Barnyardgrass
# Procedure, shortened: (§4)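 Ratings are visual, 0–100, where 100 means complete control and 0 no effect, taken roughly 10 days after treatment by comparison with untreated controls. Formulation: non-phytotoxic solvent mixture with surfactant.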
# [8] = test system: large crabgrass (Digitaria sanguinalis); test: Test A pre-/postemergence plant response; conditions: for pest or weed control at 31 g/ha / pest or weed control at 125 g/ha: Digitaria sanguinalis, 240 h, read-out: Plant response rating, Crabgrass, Large
# Procedure, shortened: as §4
# [9] = test system: pigweed (Amaranthus retroflexus); test: Test A pre-/postemergence plant response; conditions: for pest or weed control at 31 g/ha / pest or weed control at 125 g/ha: Amaranthus retroflexus, 240 h, read-out: Plant response rating, Pigweed
# Procedure, shortened: as §4
# corn (Zea mays) = test: Test A pre-/postemergence plant response; conditions: for Corn plant response rating (crop injury, 0 = no effect, 100 = complete kill) at 31 g/ha / Corn plant response rating (crop injury, 0 = no effect, 100 = complete kill) at 125 g/ha: Zea mays, 240 h
# Procedure, shortened: as §4
# [10] = test system: giant foxtail (Setaria faberi); test: Test A pre-/postemergence plant response; conditions: for pest or weed control at 31 g/ha / pest or weed control at 125 g/ha: Setaria faberi, 240 h, read-out: Plant response rating, Foxtail, Giant
# Procedure, shortened: as §4
# [11] = test system: wheat (Triticum aestivum); test: Test A pre-/postemergence plant response; conditions: for plant injury at 31 g/ha / plant injury at 125 g/ha: Triticum aestivum, 240 h, read-out: Plant response rating, Wheat
# Procedure, shortened: as §4
# [12] = Flood (flooded paddy test), 62 g ai/ha, scale 0 to 100, 0 no effect, 100 complete control
# [13] = Flood (flooded paddy test), 125 g ai/ha, scale 0 to 100, 0 no effect, 100 complete control
# [14] = Flood (flooded paddy test), 250 g ai/ha, scale 0 to 100, 0 no effect, 100 complete control
# [15] = Flood, 31 g ai/ha, scale 0 to 100
# [16] = 62 g ai/ha, scale 0 to 100, 0 no effect, 100 complete control
# [17] = Postemergence, 31 g ai/ha, 0 to 100 scale (0 no effect, 100 complete control)
# [18] = Postemergence, 125 g ai/ha, 0 to 100 scale, 0 no effect, 100 complete control
# [19] = Preemergence, 31 g ai/ha, 0 to 100 scale, 0 is no effect, 100 is complete control
# [20] = Preemergence, 125 g ai/ha, 0 to 100 scale (0 no effect, 100 complete control)
# [21] = post-emergence, Postemergence, 31 g ai/ha, 0 to 100 scale (0 no effect, 100 complete control)
# [22] = post-emergence, Postemergence, 125 g ai/ha, 0 to 100 scale, 0 no effect, 100 complete control
# [23] = pre-emergence, Preemergence, 31 g ai/ha, 0 to 100 scale, 0 is no effect, 100 is complete control
# [24] = pre-emergence, Preemergence, 125 g ai/ha, 0 to 100 scale (0 no effect, 100 complete control)
structure (smiles),measurement,setting,value
Cc1cc(-c2ccc(Cl)cc2)nn1-c1c(OC(=S)N(C)C)cnn(C)c1=O [Compound 69],"Plant response rating, Barnyardgrass",[1]; [12],0
same,"Plant response rating, Barnyardgrass",[1]; [13],0
same,"Plant response rating, Barnyardgrass",[1]; [14],0
same,"Plant response rating, Barnyardgrass",[1]; [15],0
same,"Plant response rating, Sedge, Umbrella",[2]; [12],0
same,"Plant response rating, Sedge, Umbrella",[2]; [13],0
same,"Plant response rating, Sedge, Umbrella",[2]; [14],0
same,"Plant response rating, Sedge, Umbrella",[2]; [15],0
same,Barley plant response rating,[3],0
same,"Plant response rating, Barley",[3]; 16 g ai/ha,0
same,"Plant response rating, Barley",[3]; 31 g ai/ha,0
same,"Plant response rating, Barley",[3]; 62 g ai/ha,0
same,Chickweed plant response rating,[4],0
same,"Plant response rating, Chickweed","[4]; 16 g ai/ha, scale 0 to 100",0
same,"Plant response rating, Chickweed","[4]; 31 g ai/ha, scale 0 to 100",0
same,"Plant response rating, Chickweed",[4]; [16],0
same,Canarygrass plant response rating,[5],0
same,"Plant response rating, Canarygrass","[5]; 16 g ai/ha, scale 0 to 100",0
same,"Plant response rating, Canarygrass","[5]; 31 g ai/ha, scale 0 to 100",0
same,"Plant response rating, Canarygrass",[5]; [16],0
same,Windgrass plant response rating,[6]; 8 g ai/ha,0
same,Windgrass plant response rating,[6]; 16 g ai/ha,0
same,"Plant response rating, Windgrass","[6]; 31 g ai/ha, scale 0 to 100",10
same,"Plant response rating, Windgrass",[6]; [16],40
same,"Plant response rating, Barnyardgrass",[7]; [17],90
same,"Plant response rating, Barnyardgrass",[7]; [18],100
same,"Plant response rating, Barnyardgrass",[7]; [19],20
same,"Plant response rating, Barnyardgrass",[7]; [20],70
same,"Plant response rating, Crabgrass, Large",[8]; [17],40
same,"Plant response rating, Crabgrass, Large",[8]; [18],80
same,"Plant response rating, Crabgrass, Large",[8]; [19],0
same,"Plant response rating, Crabgrass, Large",[8]; [20],90
same,"Plant response rating, Pigweed",[9]; [17],0
same,"Plant response rating, Pigweed",[9]; [18],0
same,"Plant response rating, Pigweed",[9]; [19],0
same,"Plant response rating, Pigweed",[9]; [20],0
same,"Plant response rating, Corn",corn (Zea mays); [17],60
same,"Plant response rating, Corn",corn (Zea mays); [18],90
same,"Plant response rating, Corn",corn (Zea mays); [19],20
same,"Plant response rating, Corn",corn (Zea mays); [20],30
same,"Plant response rating, Foxtail, Giant",[10]; [17],90
same,"Plant response rating, Foxtail, Giant",[10]; [18],100
same,"Plant response rating, Foxtail, Giant",[10]; [19],20
same,"Plant response rating, Foxtail, Giant",[10]; [20],90
same,"Plant response rating, Wheat",[11]; [17],0
same,"Plant response rating, Wheat",[11]; [18],30
same,"Plant response rating, Wheat",[11]; [19],0
same,"Plant response rating, Wheat",[11]; [20],0
"Cc1cc(-c2ccc(Br)cc2)nn1-c1c(O)cn[nH]c1=O [Compound 78, 4-[3-(4-bromophenyl)-5-methyl-1H-pyrazol-1-yl]-5-hydroxy-3(2H)-pyridazinone]",Barley plant response rating,[3],45
same,"Plant response rating, Barley",[3]; 16 g ai/ha,90
same,"Plant response rating, Barley",[3]; 31 g ai/ha,95
same,"Plant response rating, Barley",[3]; 62 g ai/ha,95
same,Chickweed plant response rating,[4],0
same,"Plant response rating, Chickweed","[4]; 16 g ai/ha, scale 0 to 100",0
same,"Plant response rating, Chickweed","[4]; 31 g ai/ha, scale 0 to 100",0
same,"Plant response rating, Chickweed",[4]; [16],0
same,Canarygrass plant response rating,[5],80
same,"Plant response rating, Canarygrass","[5]; 16 g ai/ha, scale 0 to 100",90
same,"Plant response rating, Canarygrass","[5]; 31 g ai/ha, scale 0 to 100",100
same,"Plant response rating, Canarygrass",[5]; [16],100
same,Windgrass plant response rating,[6]; 8 g ai/ha,40
same,Windgrass plant response rating,[6]; 16 g ai/ha,50
same,"Plant response rating, Windgrass","[6]; 31 g ai/ha, scale 0 to 100",60
same,"Plant response rating, Windgrass",[6]; [16],80
same,pest or weed control at 31 g/ha,[7]; [21],90%
same,pest or weed control at 125 g/ha,[7]; [22],100%
same,pest or weed control at 31 g/ha,[7]; [23],0%
same,pest or weed control at 125 g/ha,[7]; [24],100%
same,pest or weed control at 31 g/ha,[8]; [21],80%
same,pest or weed control at 125 g/ha,[8]; [22],100%
same,pest or weed control at 31 g/ha,[8]; [23],10%
same,pest or weed control at 125 g/ha,[8]; [24],100%
same,pest or weed control at 31 g/ha,[9]; [21],0%
same,pest or weed control at 125 g/ha,[9]; [22],0%
same,pest or weed control at 31 g/ha,[9]; [23],0%
same,pest or weed control at 125 g/ha,[9]; [24],0%
same,"Corn plant response rating (crop injury, 0 = no effect, 100 = complete kill) at 31 g/ha",corn (Zea mays); [21],60%
same,"Corn plant response rating (crop injury, 0 = no effect, 100 = complete kill) at 125 g/ha",corn (Zea mays); [22],100%
same,"Corn plant response rating (crop injury, 0 = no effect, 100 = complete kill) at 31 g/ha",corn (Zea mays); [23],0%
same,"Corn plant response rating (crop injury, 0 = no effect, 100 = complete kill) at 125 g/ha",corn (Zea mays); [24],90%
same,pest or weed control at 31 g/ha,[10]; [21],80%
same,pest or weed control at 125 g/ha,[10]; [22],100%
same,pest or weed control at 31 g/ha,[10]; [23],20%
same,pest or weed control at 125 g/ha,[10]; [24],100%
same,plant injury at 31 g/ha,[11]; [21],70%
same,plant injury at 125 g/ha,[11]; [22],90%
same,plant injury at 31 g/ha,[11]; [23],0%
same,plant injury at 125 g/ha,[11]; [24],90%
